Measurements: ChEMBL document CHEMBL1201862, “PubChem BioAssay data set” (2004)
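Results reflect a 48-hour exposure of cells in 96-well plates to compound at five concentrations. GI50 marks 50% less growth.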 Active and inactive are the calls of the source. Rule as the data show it: active = GI50 up to about 1.1 µM and inactive = higher.

How the values were obtained:
Experiment in all cases: DTP human tumour cell line panel, 48 h
[1] = system: OVCAR-8
[2] = system: MCF7
[3] = system: A498
[4] = system: MOLT-4
[5] = system: SF-539
[6] = system: SK-MEL-2
[7] = system: CCRF-CEM
[8] = system: OVCAR-5
[9] = system: CAKI-1
[10] = system: OVCAR-4
[11] = system: SK-OV-3
[12] = system: MDA-N
[13] = system: HCC 2998
[14] = system: EKVX
[15] = system: HT-29
[16] = system: COLO 205
[17] = system: SNB-19
[18] = system: HCT-116
[19] = system: M14
[20] = system: UACC-62

Measured: GI50

O=C(CCc1cccc(O)c1)NCCc1cccc(O)c1
inactive: [1] > 100 µM | [2] > 100 µM | [3] > 100 µM | [4] > 100 µM | [5] > 100 µM | [6] > 100 µM | [7] > 100 µM | [8] > 100 µM | [9] > 100 µM | [10] > 100 µM | [11] > 100 µM | [12] > 100 µM | [13] > 100 µM | [14] > 100 µM | [15] > 100 µM | [16] > 100 µM | [17] > 100 µM | [18] > 100 µM | [19] > 100 µM | [20] > 100 µM

CC(O)CCCOC(c1ccccc1)(c1ccccc1)c1ccccc1 (stereo not given)
inactive: [1] 14.7 µM | [2] 14.7 µM | [3] 20.1 µM | [4] 16.6 µM | [5] 17.2 µM | [6] 15.1 µM | [7] 23.3 µM | [8] 16.7 µM | [9] 16 µM | [10] 14.8 µM | [11] 16.6 µM | [12] 16.8 µM | [13] 15.3 µM | [14] 14.8 µM | [15] 13.2 µM | [16] 20.1 µM | [17] 16 µM | [18] 13.8 µM | [19] 15.5 µM | [20] 13.9 µM

CC1(F)C=CC(=O)C=C1
inactive: [1] 19.6 µM | [2] 31.8 µM | [3] > 100 µM | [4] 26.4 µM | [5] 37.9 µM | [6] > 100 µM | [7] 47.5 µM | [8] 58.7 µM | [9] 55.7 µM | [10] 79.3 µM | [11] > 100 µM | [12] 33.2 µM | [13] > 100 µM | [14] > 100 µM | [15] 46.5 µM | [16] > 100 µM | [17] > 100 µM | [18] 38.4 µM | [19] > 100 µM | [20] 44.9 µM

O=C(O)C(O)C(O)C(O)C(=O)CO (stereo not given)
inactive: [1] > 100 µM | [2] > 100 µM | [3] > 100 µM | [4] > 100 µM | [5] > 100 µM | [6] > 100 µM | [7] > 100 µM | [8] > 100 µM | [9] > 100 µM | [10] > 100 µM | [11] > 100 µM | [12] > 100 µM | [13] > 100 µM | [14] > 100 µM | [15] > 100 µM | [16] > 100 µM | [17] > 100 µM | [18] > 100 µM | [19] > 100 µM | [20] > 100 µM

Cc1cccc(/C=N/NC(=S)NCc2ccccn2)n1
inactive: [1] 32.1 µM | [2] 31.8 µM | [3] 49.2 µM | [4] 16.5 µM | [5] 23.4 µM | [6] > 100 µM | [7] 24.2 µM | [8] > 77.1 µM | [9] 26.4 µM | [10] > 100 µM | [11] 28.3 µM | [12] 47.2 µM | [13] 41.7 µM | [14] 37.2 µM | [15] 27.7 µM | [16] 36.1 µM | [17] 47.5 µM | [18] 29.4 µM | [19] 18.6 µM | [20] 17.7 µM

CCOC(=O)N1c2ccccc2C(C)=CC(C)C1C (stereo not given)
inactive: [1] 17.6 µM | [2] 10.3 µM | [3] 27 µM | [4] 39.4 µM | [5] 20.4 µM | [6] 32.7 µM | [7] 21.9 µM | [8] 40.1 µM | [9] 16.2 µM | [10] 60.5 µM | [11] 22.4 µM | [12] 1.32 µM | [13] 45.6 µM | [14] 35.3 µM | [15] 10.7 µM | [16] 29.2 µM | [17] 42.8 µM | [18] 6.73 µM | [19] 13.6 µM | [20] 32.6 µM

O=C(c1c(Cl)cc(Cl)cc1Cl)N(Cc1cccnc1)C(=S)N(Cc1cccnc1)C(=O)c1c(Cl)cc(Cl)cc1Cl
inactive: [1] 4.04 µM | [2] 4.52 µM | [3] 23.8 µM | [4] 6.84 µM | [5] 11 µM | [6] 12.5 µM | [7] 5.56 µM | [8] 18.5 µM | [9] 5.32 µM | [10] 2.19 µM | [11] 22.2 µM | [12] 2.15 µM | [13] 3.12 µM | [14] 15.5 µM | [15] 2.97 µM | [16] 4.73 µM | [17] 20.2 µM | [18] 2.91 µM | [19] 4.82 µM | [20] 15.1 µM

CC1CCC2(NC1)OC1CC3C4CC=C5CC(OC6OC(CO)C(OC7OC(C)C(O)C(O)C7O)C(O)C6OC6OC(C)C(O)C(O)C6O)CCC5(C)C4CCC3(C)C1C2C (stereo not given)
inactive: [1] 2.88 µM | [2] 2.32 µM | [3] 5.74 µM | [4] 8.55 µM | [5] 3.3 µM | [6] 3.63 µM | [7] 15 µM | [8] 5.66 µM | [9] 4.36 µM | [10] 2.54 µM | [11] 7.18 µM | [12] 2.37 µM | [13] 2.16 µM | [14] 2.5 µM | [15] 5.69 µM | [16] 8.63 µM | [17] 11.1 µM | [18] 2.31 µM | [19] 2.39 µM | [20] 3.02 µM

CC(C)CC(=O)NC(C(=O)NC(C(=O)NC(CC(C)C)C(O)CC(=O)NC(C)C(=O)NC(CC(C)C)C(O)CC(=O)O)C(C)C)C(C)C (stereo not given)
inactive: [1] > 100 µM | [2] > 100 µM | [3] > 100 µM | [4] > 100 µM | [5] > 100 µM | [6] > 100 µM | [7] > 100 µM | [8] > 100 µM | [9] > 100 µM | [10] > 100 µM | [11] > 100 µM | [12] > 100 µM | [13] > 100 µM | [14] > 100 µM | [15] > 100 µM | [16] > 100 µM | [17] > 100 µM | [18] > 100 µM | [19] > 100 µM | [20] > 100 µM
